“Also recorded” adds a separate entry of the source.
Experiments:
[1] = biological target: T1, PPARγ ligand binding domain (204–477) (Homo sapiens, UniProt P37231); assay: Surface plasmon resonance (SPR) analysis of fatty acid binding to immobilized PPARγ LBD; conditions: for Rmax: SPR steady-state fit, FUA: chip coupled with 12000RU; for binding to PPARγ in SPR (in words): compared with DHA and EPA; for Kd: steady-state fit, Biacore T200, chip about 6500 RU (FUA: chip coupled with 12000RU PPARγ LBD)
T1 construct: GST (N, cleaved yes); made in house; host or cells: E. coli BL21(DE3)
T1 sequence (P37231 204-477 isoform P37231-2): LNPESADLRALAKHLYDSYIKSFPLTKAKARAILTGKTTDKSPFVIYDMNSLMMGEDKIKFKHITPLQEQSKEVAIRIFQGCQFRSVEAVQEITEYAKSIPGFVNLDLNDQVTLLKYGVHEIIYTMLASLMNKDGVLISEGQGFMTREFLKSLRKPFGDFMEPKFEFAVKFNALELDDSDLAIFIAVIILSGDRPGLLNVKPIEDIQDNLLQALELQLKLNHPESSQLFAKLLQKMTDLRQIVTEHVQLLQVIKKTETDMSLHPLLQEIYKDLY
Description: The protein was firstly purified using a glutathione Sephararose 4B column, followed by PreScission protease cleavage to remove the GST-tag. […] The finally collected protein in 20 mM Tirs, pH8.0, 150 mM NaCl and 2 mM DTT was concentrated to 20 mg/ml. The purity was checked by SDS-PAGE and protein was stored at − 80 °C for use.
PPARγ (0.05 mg/ml) were coupled onto CM5 sensor chips according to amine coupling procedure from the manufacturer’s manual. […] A reference channel was generated at same conditions without protein injection and used as a blank control to correct the instrument or buffer artifacts. Fatty acids were dissolved in DMSO and diluted with concentration ranging from 0.78 to 50 μM, and injected at a flowrate of 40 μL/min. Each sensorgram consists of an association phase (120 s), indicating the binding of the injected compound to the protein, followed by a dissociation phase (300 s) during which the running buffer (10 mM phosphate buffer, 150 mM NaCl, 5% DMSO, 0.05% Tween 20, pH 7.4) is passed over and the bound compounds were eluted from the chip surface. The Kd was calculated by steady-state binding fitting method in Biacore T200 evaluate the software.

AR = system: AR; set-up: method as in ToxCast database released in October 2015; conditions: active/inactive call; ref ToxCast database released in October 2015; cited from earlier work
PPARα = system: PPARα; set-up: method as in ToxCast database released in October 2015; conditions: active/inactive call; ref ToxCast database released in October 2015; cited from earlier work
RORγ = system: RORγ; set-up: method as in ToxCast database released in October 2015; conditions: active/inactive call; ref ToxCast database released in October 2015; cited from earlier work
PR = system: PR; set-up: method as in ToxCast database released in October 2015; conditions: active/inactive call; ref ToxCast database released in October 2015; cited from earlier work
GR = system: GR; set-up: method as in ToxCast database released in October 2015; conditions: active/inactive call; ref ToxCast database released in October 2015; cited from earlier work

Rmax [1]	binding to PPARγ in SPR (in words) [1]	Kd [1] [µM]	Molecule	other results
> 10,000.00 RU	weaker binding than DHA	> 10000	eicosatrienoic acid [ESA]	–
–	–	–	O=C(O)CN(CC(=O)O)CC(=O)O [Nitrilotriacetic acid]	ToxCast activity against AR (AR): active
38.55 RU	stronger binding than DHA and EPA	136	CCCCCc1cc(C)c(CCCCCCCCC(=O)O)o1 [FNA, 10,13-epoxy-11-methyloctadeca-10,12-dienoic acid]	–
–	–	–	CCOC(=O)C(C)OC(=O)c1cc(Oc2ccc(C(F)(F)F)cc2Cl)ccc1[N+](=O)[O-] (centres unmarked) [lactofen]	ToxCast activity against AR (AR): active
459.3 RU	stronger binding than DHA and EPA	249	CCCc1cc(C)c(CCCCCCCCCCC(=O)O)o1 [FUA, 11-(3-methyl-5-propylfuran-2-yl)undecanoic acid]	–
–	–	–	CN1CCc2cccc3c2[C@H]1Cc1ccc(O)c(O)c1-3 [apomorphine, reference compound]	ToxCast activity against PPARα (PPARα): active
–	–	–	CC(C)c1cccc(C(C)C)c1N1C(=O)c2ccc(O)cc2C1=O [5HPP-33]	ToxCast activity against RORγ (RORγ): active
> 10,000.00 RU	weaker binding than DHA	> 10000	CCCCCC[C@@H](O)C/C=C\CCCCCCCC(=O)O [ROA, ricinoleic acid]	–
33.28 RU	stronger binding than DHA and EPA	103	CCCCCCC1CC1CCCCCCCCCC(=O)O (centres unmarked) [PTA, Phytomonic acid]	–
–	–	–	CC1(C)NC(=O)N(c2ccc([N+](=O)[O-])c(C(F)(F)F)c2)C1=O [Nilutamide]	ToxCast activity against PR (PR): active
281 RU	–	–	CC/C=C\C/C=C\C/C=C\C/C=C\C/C=C\C/C=C\CCC(=O)O [DHA, Docosahexaenoic acid, reference compound]	–
–	–	–	CC(C)[C@H](C(=O)O[C@H](C#N)c1cccc(Oc2ccccc2)c1)c1ccc(Cl)cc1 [Esfenvalerate]	ToxCast activity against GR (GR): active
–	–	–	Cl.N=C1C=CC(=C(c2ccc(N)cc2)c2ccc(N)cc2)C=C1 [parafuchsin]	ToxCast activity against RORγ (RORγ): active
136 RU	–	629	CC/C=C\C/C=C\C/C=C\C/C=C\C/C=C\CCCC(=O)O [EPA, Eicosapentaenoic acid, reference compound]	–
–	–	–	Oc1ccc(/C=C/c2cc(O)cc(O)c2)cc1 [reservertol]	ToxCast activity against RORγ (RORγ): active
–	–	–	O=C(c1ccc(O)cc1O)c1ccc(O)cc1O [tetrahydroxybenzophenone]	ToxCast activity against AR (AR): active
–	–	–	CC1(C)CCC(=Cc2ccc(Cl)cc2)C1(O)Cn1cncn1 (centres unmarked) [triconazole]	ToxCast activity against AR (AR): active
–	–	–	O=c1c(O)c(-c2ccc(O)cc2O)oc2cc(O)cc(O)c12 [morin]	ToxCast activity against PPARα (PPARα): active

Molecule	Rmax [1]	binding to PPARγ in SPR (in words) [1]	Kd [1] [µM]	other results
CC/C=C\C/C=C\C/C=C\C/C=C\C/C=C\CCCCCC(=O)O [DPA, docosapentaenoic acid]	2167 RU	weaker binding than DHA; also recorded: confirmed to bind to PPARγ, weaker than DHA and EPA	3960	–

From paper PMC7811525, “Virtual screening of potentially endocrine-disrupting chemicals against nuclear receptors and its application to identify PPARγ-bound fatty acids” (Archives of Toxicology, 2020)
